Measured values reported in patent publication US20100022584A1, “Modulation of Glutamine Synthetase Activity” (priority 2006, published 2010).
Where a chain is given by its changes, count along the chain named. “Also recorded” adds a separate entry of the source.

Legend:
[1] = biological target: T1, glutamine synthetase mutant S53A (Escherichia coli, UniProt P0A9C5, S54A); assay: HPLC forward-reaction glutamine synthetase assay with serine protease inhibitors; format: biochemical, E. coli; conditions: 1 mM inhibitor; for inhibition of the enzyme (in words): HPLC assays; for % Reduction in ADP-based Specific Activity / % Reduction in Glutamine-based Specific Activity: 60 min pre-incubation, vs no-inhibitor control, positive = activity increased; for % Conversion: glutamine-based divided by ADP-based specific activity
T1 construct: made in house; host or cells: E. coli YMC11 (glutamine synthetase auxotroph), pBluescript II SK+
T1 sequence (P0A9C5 2-469 S54A limits assumed): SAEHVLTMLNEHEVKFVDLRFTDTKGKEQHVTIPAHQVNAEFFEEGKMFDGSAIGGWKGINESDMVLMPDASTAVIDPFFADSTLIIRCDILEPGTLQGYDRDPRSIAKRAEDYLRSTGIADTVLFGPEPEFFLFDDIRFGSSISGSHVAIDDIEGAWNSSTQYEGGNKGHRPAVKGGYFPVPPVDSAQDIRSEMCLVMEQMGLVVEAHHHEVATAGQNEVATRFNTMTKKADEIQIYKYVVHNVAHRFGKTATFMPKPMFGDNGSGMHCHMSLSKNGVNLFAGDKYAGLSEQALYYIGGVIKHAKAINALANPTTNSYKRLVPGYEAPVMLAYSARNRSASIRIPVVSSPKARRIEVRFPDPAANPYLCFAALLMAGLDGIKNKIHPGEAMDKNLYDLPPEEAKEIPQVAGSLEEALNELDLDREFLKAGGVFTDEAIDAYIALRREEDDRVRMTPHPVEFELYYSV
Experimental: (§1) This assay was set up to measure glutamine synthetase activity according to the forward reaction, and measures the amount of glutamine formed from […] of L-glutamate in the presence of MnCO3-ATP (the basis of one reaction) and MgATP (the basis of a second reaction). In addition, the amount of ADP formed is also measured in a separate assay, using the same reagents.
(§2) All enzyme preparations were adjusted to the same concentration of protein, and added to the assay mixture in a volume of 50 μl. The addition of the enzyme started the reaction, which was then allowed to proceed for 1 hour. The reaction was stopped by the addition of 6 μl of a 50% solution of trichloroacetic acid. Each assay was then aliquoted into 4 HPLC vials (150 μl per vial), two of which were assayed for glutamate and glutamine using a Phenomenex Luna 5 μC18 Column on an Agilent 100 HPLC instrument. The ATP/ADP assays were run on a Chromolith Performance RP-18c column also using an Agilent 100 HPLC instrument.
(§3) As it is believed that two putative catalytic triads, similar to those in the serine proteases, are involved in the reaction mechanism of glutamine synthetase, certain of the mutants were also assayed by HPLC in the presence of the serine protease inhibitors, AEBSF and PMSF, in order to assess the effect that these inhibitors had on the enzyme. The enzymes assessed were the adenylylated WT enzyme, the deadenylylated WT enzyme, and the mutant enzymes S52A, S52A Y397V, S53A, S53A Y397V, S52A S53A and S52A S53A Y397V. The enzymes were pre-incubated for 60 minutes in the presence of 1 mM PMSF or 1 mM AEBSF. A control reaction was set up for each enzyme, which contained no inhibitor. Each enzyme was then added to assays set up as described above. The assay was allowed to proceed for 60 minutes, then stopped by the addition of […] of 50% TCA, after which they were analysed by HPLC. All assays were run in triplicate.
(§4) In addition to the γ-glutamyl transferase assays, assays were also developed to measure the rate of conversion of ATP and glutamate to ADP and glutamine by HPLC. These were set up as single assays but analysed separately for glutamate and glutamine and ATP and ADP. The conversion rates for glutamate to glutamine, in both the presence of Mn^2+ and Mg^2+ by glutamine synthetase, is referred to as the […] specific activity and is presented in μmoles/min/mg protein. The conversion rates for ATP to ADP, in both the presence of Mn^2+ and Mg^2+ by glutamine synthetase, is referred to as the ADP-based specific activity and is presented in μmoles/min/mg protein. The percentage of conversion was also calculated by dividing the glutamine-based specific activity by the ADP-based specific activity, and this value is interpreted as the ability of the enzyme to complete both steps of the reaction, i.e., glutamate to glutamine and ATP to ADP, at an equivalent level of efficiency.

[2] = biological target: T2, glutamine synthetase mutant S52A S53A (Escherichia coli, UniProt P0A9C5, S53A/S54A); assay: as above; format: biochemical, E. coli; conditions: 1 mM inhibitor; for % Reduction in ADP-based Specific Activity / % Reduction in Glutamine-based Specific Activity / % Conversion: S52A S53A; for % Reduction in ADP-based Specific Activity / % Reduction in Glutamine-based Specific Activity: 60 min pre-incubation, vs no-inhibitor control, positive = activity increased; for % Conversion: glutamine-based divided by ADP-based specific activity
T2 construct: made in house; host or cells: E. coli YMC11 (glutamine synthetase auxotroph), pBluescript II SK+
T2 sequence (P0A9C5 2-469 S53A/S54A limits assumed): T1 sequence (P0A9C5 2-469 S54A limits assumed) with S52A
Experimental: as §1, §2, §3, §4

| SMILES | inhibition of the enzyme (in words) [1] | % Reduction in ADP-based Specific Activity ([1]; Mg assay) | % Reduction in Glutamine-based Specific Activity ([1]; Mg assay) | % Conversion ([1]; Mg assay) | % Reduction in ADP-based Specific Activity ([1]; Mn assay) | % Reduction in Glutamine-based Specific Activity ([1]; Mn assay) | % Conversion ([1]; Mn assay) | % Reduction in ADP-based Specific Activity ([2]; Mg assay) | % Reduction in Glutamine-based Specific Activity ([2]; Mg assay) | % Conversion ([2]; Mg assay) | % Reduction in ADP-based Specific Activity ([2]; Mn assay) | % Reduction in Glutamine-based Specific Activity ([2]; Mn assay) | % Conversion ([2]; Mn assay) | inhibition of the enzyme (in words) ([2]; S52A S53A (double serine mutant), HPLC assays) |
| --- | --- | --- | --- | --- | --- | --- | --- | --- | --- | --- | --- | --- | --- | --- |
| O=S(=O)(F)Cc1ccccc1 [PMSF] | found to inhibit | −17.31% | +6.90% | 66% | +46.95% | −22.73% | 61% | −23.74% | −23.24% | 82% | −13.56% | −16.92% | 85% | did not significantly inhibit; also recorded: not significantly inhibited |
| NCCc1ccc(S(=O)(=O)F)cc1 [AEBSF] | appeared to cause inhibition | −39.50% | −1.70% | 83% | −15.43% | −15.19% | 115% | −41.91% | −17.82% | 115% | −16.20% | −7.69% | 98% |  |
